System: C57BL/6J SPF male mice
Experiment: Oral glucose tolerance test, blood sugar levels in mice
Assay type: in vivo
Conditions: mean ± standard error; for Blood sugar level, 0 minutes (pretest value): fasted mice, pretest before administration, in mg/dL (unit assumed); for Blood sugar level, 30 minutes after glucose administration / Blood sugar level, 60 minutes after glucose administration / Blood sugar level, 120 minutes after glucose administration: oral 10 mL/kg (beans 400 mg/mL, sitagliptin 0.1 mg/mL) 30 minutes before oral glucose
Experimental: The enzyme-treated azuki bean, tora bean and otebo bean prepared in Example 2 and an enzyme-treated defatted soybean prepared using the same method as Example 2 were evaluated for their actual blood sugar lowering effects in the body by using an oral glucose tolerance test. C57BL/6J SPF male mice (Clea Japan, Inc.) were used at age 10 weeks for the study animals. Twenty mice were divided into four groups of 5 mice each. In a single experiment, evaluation was carried out on four groups consisting of a control group (administered distilled water), a positive control group (administered sitagliptin) and two sample groups. Two experiments were carried out and a total of four samples were evaluated.
Blood samples were collected from the caudal veins of the mice that had been fasting since the previous evening, and blood sugar levels were measured using a simple blood glucose measuring device (GLUTEST ACE®, Sanwa Kagaku Kenkyusho Co., Ltd.) to determine pretest values (0 minutes). 100 mg tablets of sitagliptin (MERCK) were ground with a mortar and suspended in water to a concentration of 0.1 mg/mL as sitagliptin for use as a positive control. Each of the enzyme-treated beans prepared in Example 2 (or in accordance with the method thereof) was dissolved with distilled water to a concentration of 400 mg/mL for use as an administration sample. Distilled water (control group), the sitagliptin suspension (positive control group) or the enzyme-treated bean aqueous solution (sample group) was administered orally at 10 mL/kg of body weight. A 40% aqueous glucose solution was administered orally at 5 mL/kg of body weight 30 minutes after administering the distilled water, sitagliptin suspension, or sample. Blood samples were collected from the caudal veins of the mice at, 30, 60 and 120 minutes after the oral administration of glucose, followed by measurement of these blood sugar levels in the same manner as that used for measurement of pretest values.

In the case of `N[C@@H](CC(=O)N1CCn2c(nnc2C(F)(F)F)C1)Cc1cc(F)c(F)cc1F` [Sitagliptin, sitagliptin], the “Blood sugar level, 0 minutes (pretest value)” value (Experiment 1) is reported as 82.4 ± 7.0, the “Blood sugar level, 30 minutes after glucose administration” value (Experiment 1) is reported as 270.6 ± 24.2 and the “Blood sugar level, 60 minutes after glucose administration” value (Experiment 1) is reported as 185.4 ± 16.2. The “Blood sugar level, 120 minutes after glucose administration” value (Experiment 1) was 110.2 ± 12.3, the “Blood sugar level, 0 minutes (pretest value)” value (Experiment 2) was 72.0 ± 4.7 and the “Blood sugar level, 30 minutes after glucose administration” value (Experiment 2) was 215.4 ± 8.5. For the same molecule, the “Blood sugar level, 60 minutes after glucose administration” value (Experiment 2) was 145.0 ± 8.9 and the “Blood sugar level, 120 minutes after glucose administration” value (Experiment 2) was 93.6 ± 8.7.
